In article PMC10392026, “Vacuolar Phosphate Transporter1 (VPT1) may transport sugar in response to soluble sugar status of grape fruits” (Horticulture Research, 2022):

Experiments:
Format in all cases: cell-based
VvVPT1 = biological target: T1, VvVPT1 (Vitis vinifera, UniProt D7TW83); assay: fluorescent uptake in yeast, confocal microscopy; conditions: 60 uM 2-NBDG, 30 °C, 3 h; EBY.VW4000 yeast
T1 construct: gene VIT_02s0025g04540; full-length CDS (698 residues implied by VvVPT1_155-698) in pDR195, expressed in yeast hexose transport mutant EBY.VW4000

AtVPT1 = biological target: T2, AtVPT1 (Arabidopsis thaliana, UniProt F4I0G7); conditions: 1-20 mM Pi, 30 °C, 5 d; indirect growth read-out
T2 construct: gene VPT1; full-length CDS (708 residues implied by AtVPT1_162-708) in pRS426, expressed in yeast Pi uptake mutant YP101

FaVPT1 [1] = biological target: T3, FaVPT1 (Fragaria x ananassa, UniProt Z9SEB9UZJ4); assay: yeast growth complementation (SUSY7/ura3); conditions: […] (w/v) Suc as sole carbon source, […] °C; indirect growth read-out
T3 construct: full-length CDS (696 residues implied by FaVPT1_147-696) in pDR195, expressed in yeast sucrose transport mutant SUSY7/ura3
T3 sequence (Z9SEB9UZJ4 1-696): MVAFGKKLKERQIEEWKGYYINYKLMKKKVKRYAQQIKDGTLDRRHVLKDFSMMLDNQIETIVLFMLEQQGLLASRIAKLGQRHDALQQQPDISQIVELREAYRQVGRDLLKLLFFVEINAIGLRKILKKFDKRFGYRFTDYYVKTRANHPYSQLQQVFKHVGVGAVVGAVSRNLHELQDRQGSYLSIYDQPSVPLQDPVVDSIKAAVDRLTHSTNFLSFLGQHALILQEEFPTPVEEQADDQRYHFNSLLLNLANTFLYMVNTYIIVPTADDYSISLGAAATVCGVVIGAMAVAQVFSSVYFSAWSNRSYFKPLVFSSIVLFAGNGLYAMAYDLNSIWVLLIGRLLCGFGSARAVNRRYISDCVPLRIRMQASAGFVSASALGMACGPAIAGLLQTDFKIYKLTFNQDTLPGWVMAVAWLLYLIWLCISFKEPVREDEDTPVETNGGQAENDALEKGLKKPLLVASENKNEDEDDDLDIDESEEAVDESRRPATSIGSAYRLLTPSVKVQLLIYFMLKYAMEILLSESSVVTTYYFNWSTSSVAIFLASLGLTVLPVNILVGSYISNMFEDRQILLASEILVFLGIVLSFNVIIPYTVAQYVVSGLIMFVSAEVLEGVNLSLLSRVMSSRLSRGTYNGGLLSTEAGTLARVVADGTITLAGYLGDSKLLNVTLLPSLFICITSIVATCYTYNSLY

FaVPT1 [2] = biological target: T3, FaVPT1; assay: fluorescent uptake in yeast, confocal microscopy; conditions: […] esculin, […] Na2HPO4 pH […] °C, […] h; SUSY7/ura3 yeast

T2 sequence (F4I0G7 1-708): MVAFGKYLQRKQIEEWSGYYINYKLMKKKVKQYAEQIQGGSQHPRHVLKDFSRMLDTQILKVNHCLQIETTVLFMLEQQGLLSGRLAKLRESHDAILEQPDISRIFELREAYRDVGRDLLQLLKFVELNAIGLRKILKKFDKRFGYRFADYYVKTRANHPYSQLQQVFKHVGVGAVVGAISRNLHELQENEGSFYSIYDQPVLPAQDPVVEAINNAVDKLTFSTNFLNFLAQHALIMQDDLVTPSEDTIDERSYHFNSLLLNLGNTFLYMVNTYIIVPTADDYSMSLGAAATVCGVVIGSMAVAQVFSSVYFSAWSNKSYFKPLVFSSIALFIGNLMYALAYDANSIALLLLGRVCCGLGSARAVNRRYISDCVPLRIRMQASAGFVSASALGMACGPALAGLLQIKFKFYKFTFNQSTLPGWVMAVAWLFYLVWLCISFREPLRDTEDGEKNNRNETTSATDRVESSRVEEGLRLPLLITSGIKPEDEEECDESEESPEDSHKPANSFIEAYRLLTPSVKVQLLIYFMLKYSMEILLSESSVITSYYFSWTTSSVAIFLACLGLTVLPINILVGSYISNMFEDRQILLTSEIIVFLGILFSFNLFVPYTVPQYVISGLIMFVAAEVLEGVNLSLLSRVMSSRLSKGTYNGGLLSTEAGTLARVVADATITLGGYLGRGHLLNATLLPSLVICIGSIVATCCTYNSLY
T1 sequence (D7TW83 entry or part of it): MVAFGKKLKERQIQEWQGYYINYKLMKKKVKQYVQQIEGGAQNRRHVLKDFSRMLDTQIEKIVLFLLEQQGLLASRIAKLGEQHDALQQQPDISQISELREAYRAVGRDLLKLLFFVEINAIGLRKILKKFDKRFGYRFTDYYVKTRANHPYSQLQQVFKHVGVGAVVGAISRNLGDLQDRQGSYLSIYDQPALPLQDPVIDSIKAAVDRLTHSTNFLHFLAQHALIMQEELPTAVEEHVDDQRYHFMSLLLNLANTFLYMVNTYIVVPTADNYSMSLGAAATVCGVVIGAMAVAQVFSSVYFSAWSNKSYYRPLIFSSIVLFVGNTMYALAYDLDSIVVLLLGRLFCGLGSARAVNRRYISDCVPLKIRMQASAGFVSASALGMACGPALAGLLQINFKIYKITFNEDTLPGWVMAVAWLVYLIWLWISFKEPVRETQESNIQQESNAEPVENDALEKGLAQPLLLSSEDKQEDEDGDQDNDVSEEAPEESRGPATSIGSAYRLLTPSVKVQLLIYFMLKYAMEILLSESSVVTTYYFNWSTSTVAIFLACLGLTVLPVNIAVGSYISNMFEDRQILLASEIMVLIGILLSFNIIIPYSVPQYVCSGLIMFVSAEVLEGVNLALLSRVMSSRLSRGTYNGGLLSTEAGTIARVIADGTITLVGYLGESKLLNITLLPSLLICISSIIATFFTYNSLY

**Q.** How did the “fluorescent uptake in yeast, confocal microscopy” value (VvVPT1) turn out when `O=[N+]([O-])c1ccc(N[C@H]2C(O)O[C@H](CO)[C@@H](O)[C@@H]2O)c2nonc12` (stereo partly drawn) [2-NBDG, 2-[N-(7-nitrobenz-2-oxa-1,3-diazol-4-yl)amino]-2-deoxy-d-Glc] was run?
**A.** The fluorescence in VvVPT1-expressed yeast strain was stronger than that of the WT

**Q.** For `O=P(O)(O)O` [Pi], which “yeast growth complementation (YP101)” value (AtVPT1) is on record?
**A.** The yeast mutant transformed with FaVPT1, VvVPT1, or AtVPT1 restored growth

**Q.** How did the “yeast growth complementation (SUSY7/ura3)” value (FaVPT1 [1]) turn out when `OC[C@H]1O[C@@](CO)(O[C@H]2O[C@H](CO)[C@@H](O)[C@H](O)[C@H]2O)[C@@H](O)[C@@H]1O` [Suc] was run?
**A.** only FaVPT1 has sucrose transport capacity

**Q.** With `O=c1ccc2cc(O[C@@H]3O[C@H](CO)[C@@H](O)[C@H](O)[C@H]3O)c(O)cc2o1` [esculin] as the compound, how does the “fluorescent uptake in yeast, confocal microscopy” value (FaVPT1 [2]) read?
**A.** the FaVPT1-expressed yeast strain could take up both esculin and sucrose
